Test results taken from US20060079453A1, “Hla binding peptides and their uses” (priority 2002, published 2006).
Where two headings read alike, the source gives them in different places. No end group written: not given here.

What was measured:
Experiment in all cases: biochemical
Format in all cases: binding
HLA-DR DRB1*1302 (DR13) = HLA-DR DRB1*1302 (DR13) (Homo sapiens, UniProt P01903+P01911, A100E/A169T/K41T/L162R/M171V/P40S/Q125H/Q178H/Q39Y/Q99D/R42S/S66N/T262R/V115G/W38E/Y61H); conditions: DRBI *1302
HLA-DR DRB1*0101 (DR1) = HLA-DR DRB1*0101 (DR1) (Homo sapiens, UniProt P01903+P01911, A100R/D57E/F55L/F60I/F76Y/I96L/L162R/M171V/P40L/Q125E/R42F/V115G/Y59C)
HLA-DR DRB1*0701 (DR7) = HLA-DR DRB1*0701 (DR7) (Homo sapiens, UniProt P01903+P01911, A100R/A102G/A103Q/D57E/D86V/E43K/F76Y/K127E/L162R/M171V/P40G/Q125H/Q99D/R33Q/R42Y/R54Q/S133A/S66F/T210M/V115G/Y107V/Y59L/Y89S)
HLA-DR DRB1*0802 (DR8) = HLA-DR DRB1*0802 (DR8) (Homo sapiens, UniProt P01903+P01911, A100R/A103L/A169T/F76Y/H45Y/I96F/K41T/L162R/M171V/P40S/Q125H/Q178H/Q39Y/Q99D/R218S/R42G/S66Y/V115G/W38E)
HLA-DR DRB4*0101 (DR53) = HLA-DR DRB4*0101 (DR53) (Homo sapiens, UniProt P01903+P13762, G164S); conditions: DRB4 *0101
HLA-DR DRB1*0401 (DR4) = HLA-DR DRB1*0401 (DR4) (Homo sapiens, UniProt P01903+P01911, A100K/A169T/F76Y/I96L/K127E/L162R/M171V/N62H/P40V/Q125Y/R42H/S133A/S149N/S66Y/V115G/V209L/W38E)
HLA-DR DRB5*0101 (DR51) = HLA-DR DRB5*0101 (DR51) (Homo sapiens, UniProt P01903+Q30154); conditions: DRB5 *0101
HLA-DR DRB1*1501 (DR15) = HLA-DR DRB1*1501 (DR15) (Homo sapiens, UniProt P01903+P01911); conditions: DRBI *1501
HLA-DR DRB1*0301 (DR3) = HLA-DR DRB1*0301 (DR3) (Homo sapiens, UniProt P01903+P01911, A100K/A102G/A103R/A169T/F55Y/I96L/K41T/L162R/M171V/P40S/Q125H/Q178H/Q39Y/R42S/S66N/T106N/T262R/W38E/Y61H)
HLA-DR DRB1*0901 (DR9) = HLA-DR DRB1*0901 (DR9) (Homo sapiens, UniProt P01903+P01911, A100R/A103E/D57H/D86V/F55Y/F60I/F76Y/I96F/K127E/L162R/M171V/P40D/Q125H/Q99R/R33Q/R42F/S133A/S66N/T210M/V115G/W38K/Y107V/Y59G/Y89S)
HLA-DR DRB1*1101 (DR11) = HLA-DR DRB1*1101 (DR11) (Homo sapiens, UniProt P01903+P01911, A100R/A169T/A87E/I96F/K41T/L162R/M171V/P40S/Q125H/Q178H/Q39Y/Q99D/R42S/S66Y/T262R/V115G/W38E); conditions: DRB1 *1101
Chain of HLA-DR DRB1*1101 (DR11) (P01903 26-254 limits assumed, other chains not shown): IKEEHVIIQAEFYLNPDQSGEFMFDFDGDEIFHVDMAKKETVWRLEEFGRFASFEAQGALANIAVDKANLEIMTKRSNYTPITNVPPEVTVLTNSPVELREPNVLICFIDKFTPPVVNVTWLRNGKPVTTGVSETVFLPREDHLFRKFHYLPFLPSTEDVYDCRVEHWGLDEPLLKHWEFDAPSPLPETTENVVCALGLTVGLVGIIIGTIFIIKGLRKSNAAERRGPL

Chain of HLA-DR DRB1*1302 (DR13) (P01903 26-254 limits assumed, other chains not shown): as above
Chain of HLA-DR DRB1*0301 (DR3) (P01903 26-254 limits assumed, other chains not shown): as above

Sequence	IC50 (HLA-DR DRB1*0101 (DR1); DRB1 *0101) [nM]	IC50 (HLA-DR DRB1*0701 (DR7); DRB1 *0701) [nM]	IC50 (HLA-DR DRB1*0802 (DR8)) [nM]	IC50 (HLA-DR DRB4*0101 (DR53)) [nM]	IC50 (HLA-DR DRB1*0401 (DR4); DRB1 *0401) [nM]	IC50 (HLA-DR DRB1*0401 (DR4); read-out: DRB1 *0401) [nM]	IC50 (HLA-DR DRB1*0701 (DR7); read-out: DRB1 *0701) [nM]	also measured
LYYLFNQHIKKELYH	27	10200	1770	1090	–	–	–	IC50 (HLA-DR DRB1*1302 (DR13)): 327 nM
MIMIKFMGVIYIMII	2900	68000	66100	–	312	–	–	–
MNALRRLPVICSFLV	2.1	–	265	5.7	13	–	–	IC50 (HLA-DR DRB5*0101 (DR51)): 2560 nM; IC50 (HLA-DR DRB1*1501 (DR15)): 36 nM
NHLINTPKIMPHHII	–	–	1300	1630	4800	–	–	IC50 (HLA-DR DRB5*0101 (DR51)): 8880 nM; IC50 (HLA-DR DRB1*1501 (DR15)): 560 nM
NVNLQKQLLTNHLIN [NVNLQKQLLTNHLIN]	96	555	11200	354	2460	–	–	IC50 (HLA-DR DRB5*0101 (DR51)): > 7210 nM; IC50 (HLA-DR DRB1*1501 (DR15)): 4450 nM
NYELSKKAVIFTPIY	713	5500	141	–	536	–	–	–
QAISPRTLNSPAIF	–	–	–	–	–	6210	39700	IC50 (HLA-DR DRB1*0101 (DR1); read-out: DRB1 *0101): 1960 nM; IC50 (HLA-DR DRB1*0301 (DR3); read-out: DRB1 *0301): 298000 nM; IC50 (HLA-DR DRB1*0901 (DR9); read-out: DRB1 *0901): 286000 nM
QKQLLTNHLINTPK	–	–	–	–	–	–	4410	IC50 (HLA-DR DRB1*0802 (DR8); read-out: DRB1 *0802): 21000 nM
QLQQFQKEDAAVTLY	–	–	–	–	–	–	500	IC50 (HLA-DR DRB1*0101 (DR1); read-out: DRB1 *0101): 85 nM; IC50 (HLA-DR DRB1*0901 (DR9); read-out: DRB1 *0901): 55400 nM
RIVYRDGNPFAVCKV	–	–	–	–	19	–	–	IC50 (HLA-DR DRB1*1302 (DR13)): 122 nM; IC50 (HLA-DR DRB1*0301 (DR3)): 144 nM; IC50 (HLA-DR DRB1*1501 (DR15)): 81 nM; IC50 (HLA-DR DRB1*0901 (DR9); DRB1 *0901): 4960 nM
RTVYRDNNPYGVCIM	–	–	–	–	–	20	–	IC50 (HLA-DR DRB1*0101 (DR1); read-out: DRB1 *0101): 524 nM; IC50 (HLA-DR DRB1*0901 (DR9); read-out: DRB1 *0901): 24100 nM
SKIMKLPKLPISNGK	824	83700	110	–	6480	–	–	–
SMEYKKDFLITARKP	–	–	–	–	–	24	776	IC50 (HLA-DR DRB1*0802 (DR8); read-out: DRB1 *0802): 8900 nM
SVTWIGAAPLILSPI	–	–	–	–	–	3150	83	IC50 (HLA-DR DRB1*0101 (DR1); read-out: DRB1 *0101): 4.1 nM; IC50 (HLA-DR DRB1*0301 (DR3); read-out: DRB1 *0301): > 81800 nM; IC50 (HLA-DR DRB1*0901 (DR9); read-out: DRB1 *0901): 30 nM
TLRLCVQSTHVDIRT	1520	3260	–	243	12000	–	–	IC50 (HLA-DR DRB1*1302 (DR13)): 932 nM; IC50 (HLA-DR DRB5*0101 (DR51)): > 22900 nM; IC50 (HLA-DR DRB1*1101 (DR11)): 17600 nM; IC50 (HLA-DR DRB1*0901 (DR9); DRB1 *0901): 6370 nM
TYSYSFDSLFSAVKN	–	–	–	–	–	73	–	IC50 (HLA-DR DRB1*0802 (DR8); read-out: DRB1 *0802): 2260 nM
VLDLYPEPTDLYCYE	11200	> 72300	–	18	203	–	–	IC50 (HLA-DR DRB1*1302 (DR13)): > 12000 nM; IC50 (HLA-DR DRB5*0101 (DR51)): > 15300 nM; IC50 (HLA-DR DRB1*0301 (DR3)): 121 nM; IC50 (HLA-DR DRB1*1101 (DR11)): > 15200 nM; IC50 (HLA-DR DRB1*1501 (DR15)): 21600 nM; IC50 (HLA-DR DRB1*0901 (DR9); DRB1 *0901): > 32200 nM
VQQLLMGALTVTCPL	10	71	–	204	–	–	–	IC50 (HLA-DR DRB1*1302 (DR13)): 574 nM; IC50 (HLA-DR DRB5*0101 (DR51)): 7150 nM; IC50 (HLA-DR DRB1*0301 (DR3)): 34300 nM; IC50 (HLA-DR DRB1*1101 (DR11)): 11100 nM; IC50 (HLA-DR DRB1*0901 (DR9); DRB1 *0901): 180 nM
VRTLQQLLMQTCTIV	–	–	–	–	–	322	1820	IC50 (HLA-DR DRB1*0101 (DR1); read-out: DRB1 *0101): 36 nM; IC50 (HLA-DR DRB1*0901 (DR9); read-out: DRB1 *0901): 496 nM
VYDFAFADLTVVYRE	173	7010	–	10700	–	–	–	IC50 (HLA-DR DRB1*1302 (DR13)): > 13100 nM; IC50 (HLA-DR DRB1*1101 (DR11)): > 18000 nM; IC50 (HLA-DR DRB1*1501 (DR15)): 9450 nM; IC50 (HLA-DR DRB1*0901 (DR9); DRB1 *0901): 155 nM
YGIIVPVLTSLFNKV	–	–	–	–	–	2	60	IC50 (HLA-DR DRB1*0101 (DR1); read-out: DRB1 *0101): 6 nM; IC50 (HLA-DR DRB1*0802 (DR8); read-out: DRB1 *0802): 793 nM
